Results reported in patent publication US20100227845A1, “SUBSTITUTED 1,2,4-OXADIAZOLES AND ANALOGS THEREOF AS CB2 RECEPTOR MODULATORS, USEFUL IN THE TREATMENT OF PAIN, RESPIRATORY AND NON-RESPIRATORY DISEASES” (priority 2007, published 2010).
Like-named read-outs stand apart in the source and are kept apart here.

How the values were obtained:
[1] = molecular target: human CB2 (Homo sapiens, UniProt P34972); assay: Cyclic AMP assay (HTRF), CHO cells expressing human CB2; type: cell-based
Description: (§1) Chinese Hamster Ovary cells (CHO) expressing human CB1 or human CB2 (3.3×10^5 cells/ml) were preincubated for 15 min at room temperature with tested agonist and 3-isobutyl-1-methylxanthine (IBMX; 200 μM) in phosphate buffered saline containing 1 mg/ml BSA (assay buffer) followed by 30 min incubation with forskolin in a total volume of 10 μl. The optimal forskolin concentration for each cell line was established in a separate experiment and adjusted to stimulate 70% of maximal cAMP response. cAMP content was measured using an HTRF assay (CisBio) according to the manufacturer's two step protocol.

[2] = molecular target: human CB1 (Homo sapiens, UniProt P21554); assay: Cyclic AMP assay (HTRF), CHO cells expressing human CB1; type: cell-based
human CB1, sequence (P21554 whole entry): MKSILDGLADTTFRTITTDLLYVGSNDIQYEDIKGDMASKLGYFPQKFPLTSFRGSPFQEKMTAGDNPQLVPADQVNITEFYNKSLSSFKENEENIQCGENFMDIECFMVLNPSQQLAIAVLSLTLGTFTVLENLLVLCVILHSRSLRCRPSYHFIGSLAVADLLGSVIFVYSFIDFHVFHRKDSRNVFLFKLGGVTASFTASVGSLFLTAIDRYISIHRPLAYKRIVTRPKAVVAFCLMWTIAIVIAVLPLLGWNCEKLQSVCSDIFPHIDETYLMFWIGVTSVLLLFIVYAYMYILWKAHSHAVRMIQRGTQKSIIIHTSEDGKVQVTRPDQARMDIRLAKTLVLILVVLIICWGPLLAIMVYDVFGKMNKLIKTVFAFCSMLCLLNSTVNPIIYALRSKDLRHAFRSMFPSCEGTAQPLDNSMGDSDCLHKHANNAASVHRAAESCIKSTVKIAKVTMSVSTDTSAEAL
Description: as §1

[3] = IP of tested agonist, CHO cells expressing human CB2, forskolin-stimulated cAMP, HTRF, read-out: CB2 (HTRF)
[4] = IP of tested agonist, CHO cells expressing human CB1, forskolin-stimulated cAMP, HTRF, read-out: CB1 (HTRF)

human CB2, sequence (P34972 whole entry): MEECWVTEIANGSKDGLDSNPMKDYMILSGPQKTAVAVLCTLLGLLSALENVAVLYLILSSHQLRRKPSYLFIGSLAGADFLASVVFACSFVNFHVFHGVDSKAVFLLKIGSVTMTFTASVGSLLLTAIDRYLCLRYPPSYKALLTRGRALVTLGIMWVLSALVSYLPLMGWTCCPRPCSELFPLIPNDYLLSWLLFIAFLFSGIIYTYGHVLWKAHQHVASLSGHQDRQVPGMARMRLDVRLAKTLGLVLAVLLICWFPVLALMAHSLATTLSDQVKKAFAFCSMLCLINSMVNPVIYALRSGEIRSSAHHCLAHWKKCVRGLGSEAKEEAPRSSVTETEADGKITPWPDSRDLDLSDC

EC50 [1, 3]	EC50 [2, 4]	Structure (SMILES)	EC50 [1]	EC50 [2]
272 nM	> 17000 nM	COCCOc1ncccc1-c1nc(-c2cccc(Cl)c2)no1 [II-2]	–	–
900 nM	> 17000 nM	CCCCOc1ncccc1-c1nc(-c2ccccc2)c[nH]1 [III-2]	–	–
109 nM	> 17000 nM	CCCCOc1ncccc1-c1nc(-c2ccc(C(F)(F)F)cc2)c[nH]1 [III-3]	–	–
110 nM	> 17000 nM	CCCCOc1ncccc1-c1nc2ccccc2[nH]1 [IV-2]	–	–
258 nM	> 17000 nM	N#Cc1ccc(-c2ncccc2-c2nc3cc(Cl)c(Cl)cc3[nH]2)cc1 [IV-5]	–	–

Continued, compound first:

Structure (SMILES)	EC50 [1, 3]	EC50 [2, 4]	EC50 [1]	EC50 [2]
CCCCOc1ncccc1-c1nc(-c2ccc(Cl)cc2)no1 [Example I-3]	–	–	85 nM	> 17000 nM
CCCCOc1ncccc1-c1nc(-c2cccc(Cl)c2Cl)no1 [Example I-4]	–	–	3 nM	309 nM
CCCCOc1ncccc1-c1nc(-c2c(Cl)cccc2Cl)no1 [Example I-5]	–	–	4 nM	114 nM
CS(=O)(=O)C1CCN(c2ncccc2-c2cc(-c3cccc(F)c3)n[nH]2)CC1 [Example V-4]	68 nM	8750 nM	–	–
NC(=O)C1CCN(c2ncccc2-c2cc(-c3cccc(F)c3)n[nH]2)CC1 [Example V-5]	717 nM	> 17000 nM	–	–
CC(C)(C)COc1ncccc1-c1nc(-c2cccc(Cl)c2)no1 [II-5]	508 nM	> 17000 nM	–	–
